Measured values from US20250002854A1, “METHODS OF GENERATING POPULATIONS OF TUMOUR-INFILTRATING T CELLS” (LYTIX BIOPHARMA AS, priority 2016, published 2025).

Key:
B16F1 cells [1] = experiment: TEM electron microscopy of B16F1 cells; format: cell-based, murine; conditions: 108 μM
Description: B16F1 cells were seeded in 35 mm sterile tissue culture dishes at a density of 1×10^4 cells in a volume of 2 ml of culture media, and left to adhere and grow in a cell incubator at 37° C., >95% humidity and 5% CO2 conditions. When cultured cells reached an acceptable confluence (˜80-90%), they were incubated with the 4×IC50^4h value of LTX-401 (108 μM) for different time points (5, 15, 30 and 60 minutes) and subsequently fixed in a PHEM buffered (0.1 M) solution containing 0.05% malachite green oxalate (Sigma), 0.5% glutaraldehyde (GA, Electron Microscopy Sciences) and 4% formaldehyde (FA, Electron Microscopy Sciences). Malachite green is more frequently being used as an additive to primary fixation in order to reduce lipid extraction commonly associated with sample processing. Samples were immediately loaded and processed en bloc using the PELCO Biowave Pro Laboratory Microwave (Ted Pella, Inc.), a newly introduced method considered to be advantageous over conventional bench protocols, since it reduces sample preparation from days to hours. For all microwave steps, samples were microwaved at 23° C. with a 50° C. cut-out temperature. Both malachite green/GA/FA and osmium-reduced ferrocyanide (0.8% K3Fe (CN)6/1% OsO4) fixation steps were run in “power on/off” cycles of 2 minutes on, 2 minutes off (100 W), with vacuum.
Samples were rinsed four times with 0.1 M PHEM buffer between each step (two bench rinses and two final rinses for 40 seconds at 250 W) before being stained with 1% tannic acid (Electron Microscopy Sciences, PA, USA) and 1% aqueous uranyl acetate (Electron Microscopy Sciences, PA, USA) under “power on/off” cycles of 1 minute on, 1 minute off (150 W), with vacuum. Samples were rinsed as previously described between each staining procedure, in addition to being microwaved twice in water at 250 W (vacuum off). […]

B16F1 cells [2] = experiment: Release of HMGB1 (Western blot); format: cell-based, murine; conditions: 108 μM
Description: B16F1 cells were seeded at a density of 2×10^5 cells/well in 6-well plates in a complete medium, and allowed to adhere overnight. Cells were treated with 108 μM of LTX-401 (4×IC50^4h), and incubated at 37° C. (>95% humidity and 5% CO2) for different time points (10, 30, 60, 90 and 120 minutes). Serum-free RPMI 1640 was used as a negative control, and supernatants (S) were collected and centrifuged at 1,400 g for 5 min before being up-concentrated using Amicon Ultra-0.5 Centrifugal Filter units with Ultracel-50 membrane (Milipore, Norway). Cell lysates (L) were harvested after washing with 2 mL of serum-free RPMI-1640 and subjected to a lysis buffer (mastermix) containing 2×NuPAGE LDS Sample buffer (Invitrogen, Norway), a 1×NuPAGE Sample Reducing Agent (Invitrogen, Norway) and 50% sterile H20. Both supernatants and lysates were boiled at 70° C. for 10 min and resolved on NuPAGE Novex 4-12% Bis-Tris Gels (Millipore, Norway) before being electrotransferred to a polyvindiline difluoride (PVDF) membrane (Millipore, Norway). […]

remaining cell lines = experiment: In vitro cytotoxicity, MTT assay; format: cell-based
Source text: JM1, a rat hepatocellular carcinoma, HEPG2 and BEL7402, both human hepatocellular carcinomas, were kindly provided by Dr. Pål-Dag Line, Director, Department of Transplantation Medicine, Oslo University Hospital. B16F1 (ATCC, CRL-6323), a murine skin malignant melanoma, MDA-MB-435S (HTB-129), a human malignant melanoma originating from a breast metastases, Malme-3M (HTB-64), a human malignant melanoma derived from a lung metastases, MRC-5 (ATCC, CCL-171), normal human lung fibroblasts, SK-N-AS (ATCC, CRL-2137), a human neuroblastoma cell line derived from a bone marrow metastases, HT-29 (ATCC, HTB-38), a human colorectal adenocarcinoma and HUV-EC-C (ATCC, CRL-1730), a human vascular endothelium cell line, were all purchased from the American Type Culture Collection (ATCC-LGC Standards, Rockville, MD, USA). HaCat, a human keratinocyte cell line, was kindly provided by Dr. Ingvild Pettersen, Department of Host Microbe Interactions, University of Tromsø. A375, a malignant melanoma cell line of human origin, was purchased from Public Health England (PHE Culture Conditions, Porton, Down, Salisbury, UK). JM1, A375, BEL7402, HEPG2 and B16F1 were all maintained in culture media consisting of DMEM (high glucose), while SK-N-AS, HT-29 and MDA-MB-435S were cultured in an RPMI-1640 medium containing 2 mM L-glutamine and sodium bicarbonate. Malme-3M was cultured in RPMI-1640, containing 4 mM L-glutamine and 20% FBS (fetal bovine serum). Lastly, the three non-malignant cell lines, HUV-EC-C, MRC-5 and HaCat, were cultured, respectively, using the EGM-2 BulletKit (Lonza, MA), containing basal media and growth factors, MEM (normal glucose) also containing 2 mM L-glutamine and 1% non-essential amino acids and DMEM (normal glucose) containing 2 mM L-glutamine. All media were (if not specified otherwise) supplemented with 10% FBS, with the exception of the EGM-2 BulletKit, which is delivered with an aliquot of 10 ml FBS to yield a final concentration of 2% FBS in solution. […]

Cl.Cl.NCCNC(=O)C(CN)(CCCc1ccccc1)CCCc1ccccc1 [LTX-401]
ultrastructural changes (B16F1 cells [1]; 5 min): lost their surface morphology
ultrastructural changes (B16F1 cells [1]; 60 minutes): Large portions of cells were necrotic
mode of cell killing (B16F1 cells [1]; TEM): kills by a lytic mode of action
time at which HMGB1 translocation was absolute (B16F1 cells [2]): 90 min
time at which release of HMGB1 occurs (B16F1 cells [2]): 30 min
IC50 (remaining cell lines): 19 to 32 µM
